Test system: Key Broadleaf Weed and Crop Species
Assay: Post-Emergent Test II (Table 5)
Assay type: in vivo
Details: Abutilon theophrasti, post-emergence, 336 h, ABUTH: velvetleaf (Abutilon theophrasti), application rate 70 (kg ai/ha; footnote: g ai/ha), read-out: Visual Growth Reduction (%) 14 Days After Application ABUTH
How it was run: (§1)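 Growth stage at treatment: first or second true leaf. Application: compound in acetone/DMSO diluted into an adjuvant-containing aqueous mix, sprayed at 187 L/ha at several rates. Assessment: visual 0-100% injury at 14 days against untreated plants.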

**Q.** With `COc1nc(C(F)(F)F)ccc1-c1cc(N)c(Cl)c(C(=O)O)n1` [Compound 65] as the molecule, how does the pest or weed control at 70 g/ha read?
**A.** 0 to 29%

Same assay, conditions: Abutilon theophrasti, post-emergence, 336 h, ABUTH: velvetleaf (Abutilon theophrasti), application rate 140 (kg ai/ha; footnote: g ai/ha), read-out: Visual Growth Reduction (%) 14 Days After Application ABUTH

**Q.** With `COc1nc(C(F)(F)F)ccc1-c1cc(N)c(Cl)c(C(=O)O)n1` [Compound 65] as the molecule, how does the pest or weed control at 140 g/ha read?
**A.** 0 to 29%

Same assay, conditions: Amaranthus retroflexus, post-emergence, 336 h, AMARE: redroot pigweed (Amaranthus retroflexus), application rate 70 (kg ai/ha; footnote: g ai/ha), read-out: Visual Growth Reduction (%) 14 Days After Application AMARE

**Q.** Which pest or weed control at 70 g/ha does the source give for `COc1nc(C(F)(F)F)ccc1-c1cc(N)c(Cl)c(C(=O)O)n1` [Compound 65] here?
**A.** 85 to 94%

Same assay, conditions: Amaranthus retroflexus, post-emergence, 336 h, AMARE: redroot pigweed (Amaranthus retroflexus), application rate 140 (kg ai/ha; footnote: g ai/ha), read-out: Visual Growth Reduction (%) 14 Days After Application AMARE

**Q.** Which pest or weed control at 140 g/ha does the source give for `COc1nc(C(F)(F)F)ccc1-c1cc(N)c(Cl)c(C(=O)O)n1` [Compound 65] here?
**A.** 85 to 94%

Same assay, conditions: Brassica napus, post-emergence, 336 h, BRSSS: oilseed rape, canola (Brassica napus), application rate 70 (kg ai/ha; footnote: g ai/ha), read-out: Visual Growth Reduction (%) 14 Days After Application BRSSS

**Q.** Which pest or weed control at 70 g/ha does the source give for `COc1nc(C(F)(F)F)ccc1-c1cc(N)c(Cl)c(C(=O)O)n1` [Compound 65] here?
**A.** 0 to 29%

Same assay, conditions: Brassica napus, post-emergence, 336 h, BRSSS: oilseed rape, canola (Brassica napus), application rate 140 (kg ai/ha; footnote: g ai/ha), read-out: Visual Growth Reduction (%) 14 Days After Application BRSSS

**Q.** Which pest or weed control at 140 g/ha does the source give for `COc1nc(C(F)(F)F)ccc1-c1cc(N)c(Cl)c(C(=O)O)n1` [Compound 65] here?
**A.** 0 to 29%

Same assay, conditions: Chenopodium album, post-emergence, 336 h, CHEAL: lambsquarters (Chenopodium album), application rate 70 (kg ai/ha; footnote: g ai/ha), read-out: Visual Growth Reduction (%) 14 Days After Application CHEAL

**Q.** With `COc1nc(C(F)(F)F)ccc1-c1cc(N)c(Cl)c(C(=O)O)n1` [Compound 65] as the molecule, how does the pest or weed control at 70 g/ha read?
**A.** 0 to 29%

Same assay, conditions: Chenopodium album, post-emergence, 336 h, CHEAL: lambsquarters (Chenopodium album), application rate 140 (kg ai/ha; footnote: g ai/ha), read-out: Visual Growth Reduction (%) 14 Days After Application CHEAL

**Q.** For `COc1nc(C(F)(F)F)ccc1-c1cc(N)c(Cl)c(C(=O)O)n1` [Compound 65], which pest or weed control at 140 g/ha is on record?
**A.** 0 to 29%

Same assay, conditions: Euphorbia heterophylla, post-emergence, 336 h, EPHHL: wild poinsettia (Euphorbia heterophylla), application rate 70 (kg ai/ha; footnote: g ai/ha), read-out: Visual Growth Reduction (%) 14 Days After Application EPHHL

**Q.** With `COc1nc(C(F)(F)F)ccc1-c1cc(N)c(Cl)c(C(=O)O)n1` [Compound 65] as the molecule, how does the pest or weed control at 70 g/ha read?
**A.** 0 to 29%

Same assay, conditions: Euphorbia heterophylla, post-emergence, 336 h, EPHHL: wild poinsettia (Euphorbia heterophylla), application rate 140 (kg ai/ha; footnote: g ai/ha), read-out: Visual Growth Reduction (%) 14 Days After Application EPHHL

**Q.** With `COc1nc(C(F)(F)F)ccc1-c1cc(N)c(Cl)c(C(=O)O)n1` [Compound 65] as the molecule, how does the pest or weed control at 140 g/ha read?
**A.** 0 to 29%

Same assay, conditions: Helianthus annuus, post-emergence, 336 h, HELAN: sunflower (Helianthus annuus), application rate 70 (kg ai/ha; footnote: g ai/ha), read-out: Visual Growth Reduction (%) 14 Days After Application HELAN

**Q.** Which pest or weed control at 70 g/ha does the source give for `COc1nc(C(F)(F)F)ccc1-c1cc(N)c(Cl)c(C(=O)O)n1` [Compound 65] here?
**A.** 45 to 59%

Same assay, conditions: Helianthus annuus, post-emergence, 336 h, HELAN: sunflower (Helianthus annuus), application rate 140 (kg ai/ha; footnote: g ai/ha), read-out: Visual Growth Reduction (%) 14 Days After Application HELAN

**Q.** For `COc1nc(C(F)(F)F)ccc1-c1cc(N)c(Cl)c(C(=O)O)n1` [Compound 65], which pest or weed control at 140 g/ha is on record?
**A.** 45 to 59%

Same assay, conditions: Viola tricolor, post-emergence, 336 h, VIOTR: wild pansy (Viola tricolor), application rate 70 (kg ai/ha; footnote: g ai/ha), read-out: Visual Growth Reduction (%) 14 Days After Application VIOTR

**Q.** For `COc1nc(C(F)(F)F)ccc1-c1cc(N)c(Cl)c(C(=O)O)n1` [Compound 65], which pest or weed control at 70 g/ha is on record?
**A.** 0 to 29%

Same assay, conditions: Viola tricolor, post-emergence, 336 h, VIOTR: wild pansy (Viola tricolor), application rate 140 (kg ai/ha; footnote: g ai/ha), read-out: Visual Growth Reduction (%) 14 Days After Application VIOTR

**Q.** Which pest or weed control at 140 g/ha does the source give for `COc1nc(C(F)(F)F)ccc1-c1cc(N)c(Cl)c(C(=O)O)n1` [Compound 65] here?
**A.** 0 to 29%

Test system: not given
Assay: not given
Details: not given

**Q.** With `COc1nc(C(F)(F)F)ccc1-c1cc(N)c(Cl)c(C(=O)O)n1` [Compound 65] as the molecule, how does the melting point read?
**A.** 169 to 171 °C

Test system: Key Grass and Sedge Weeds as well as Grass Crops
Assay: Post-Emergent Test II (Table 6)
Assay type: in vivo
Details: post-emergence, 336 h, CYPSS, 70 g ai/ha, 14 days after application, read-out: Visual Growth Reduction (%) 14 Days After Application CYPSS
How it was run: as §1

**Q.** With `COc1nc(C(F)(F)F)ccc1-c1cc(N)c(Cl)c(C(=O)O)n1` [Compound 65] as the molecule, how does the pest or weed control at 70 g/ha read?
**A.** 0 to 29%

Same assay, conditions: post-emergence, 336 h, CYPSS, 140 g ai/ha, 14 days after application, read-out: Visual Growth Reduction (%) 14 Days After Application CYPSS

**Q.** For `COc1nc(C(F)(F)F)ccc1-c1cc(N)c(Cl)c(C(=O)O)n1` [Compound 65], which pest or weed control at 140 g/ha is on record?
**A.** 0 to 29%

Same assay, conditions: post-emergence, 336 h, DIGSA: crabgrass (Digitaria sanguinalis), 70 g ai/ha, 14 days after application, read-out: Visual Growth Reduction (%) 14 Days After Application DIGSA

**Q.** Which pest or weed control at 70 g/ha does the source give for `COc1nc(C(F)(F)F)ccc1-c1cc(N)c(Cl)c(C(=O)O)n1` [Compound 65] here?
**A.** 0 to 29%

Same assay, conditions: post-emergence, 336 h, DIGSA: crabgrass (Digitaria sanguinalis), 140 g ai/ha, 14 days after application, read-out: Visual Growth Reduction (%) 14 Days After Application DIGSA

**Q.** With `COc1nc(C(F)(F)F)ccc1-c1cc(N)c(Cl)c(C(=O)O)n1` [Compound 65] as the molecule, how does the pest or weed control at 140 g/ha read?
**A.** 0 to 29%

Same assay, conditions: post-emergence, 336 h, ECHSS, 70 g ai/ha, 14 days after application, read-out: Visual Growth Reduction (%) 14 Days After Application ECHSS

**Q.** For `COc1nc(C(F)(F)F)ccc1-c1cc(N)c(Cl)c(C(=O)O)n1` [Compound 65], which pest or weed control at 70 g/ha is on record?
**A.** 0 to 29%

Same assay, conditions: post-emergence, 336 h, ECHSS, 140 g ai/ha, 14 days after application, read-out: Visual Growth Reduction (%) 14 Days After Application ECHSS

**Q.** With `COc1nc(C(F)(F)F)ccc1-c1cc(N)c(Cl)c(C(=O)O)n1` [Compound 65] as the molecule, how does the pest or weed control at 140 g/ha read?
**A.** 0 to 29%

Same assay, conditions: post-emergence, 336 h, ORYSS (crop), 70 g ai/ha, 14 days after application, read-out: Visual Growth Reduction (%) 14 Days After Application ORYSS

**Q.** Which pest or weed control at 70 g/ha does the source give for `COc1nc(C(F)(F)F)ccc1-c1cc(N)c(Cl)c(C(=O)O)n1` [Compound 65] here?
**A.** 0 to 29%

Same assay, conditions: post-emergence, 336 h, ORYSS (crop), 140 g ai/ha, 14 days after application, read-out: Visual Growth Reduction (%) 14 Days After Application ORYSS

**Q.** Which pest or weed control at 140 g/ha does the source give for `COc1nc(C(F)(F)F)ccc1-c1cc(N)c(Cl)c(C(=O)O)n1` [Compound 65] here?
**A.** 0 to 29%

Same assay, conditions: post-emergence, 336 h, SETFA: giant foxtail (Setaria faberi), 70 g ai/ha, 14 days after application, read-out: Visual Growth Reduction (%) 14 Days After Application SETFA

**Q.** For `COc1nc(C(F)(F)F)ccc1-c1cc(N)c(Cl)c(C(=O)O)n1` [Compound 65], which pest or weed control at 70 g/ha is on record?
**A.** 0 to 29%

Same assay, conditions: post-emergence, 336 h, SETFA: giant foxtail (Setaria faberi), 140 g ai/ha, 14 days after application, read-out: Visual Growth Reduction (%) 14 Days After Application SETFA

**Q.** Which pest or weed control at 140 g/ha does the source give for `COc1nc(C(F)(F)F)ccc1-c1cc(N)c(Cl)c(C(=O)O)n1` [Compound 65] here?
**A.** 0 to 29%

Same assay, conditions: post-emergence, 336 h, SORVU: grain sorghum (Sorghum vulgare), 70 g ai/ha, 14 days after application, read-out: Visual Growth Reduction (%) 14 Days After Application SORVU

**Q.** With `COc1nc(C(F)(F)F)ccc1-c1cc(N)c(Cl)c(C(=O)O)n1` [Compound 65] as the molecule, how does the pest or weed control at 70 g/ha read?
**A.** 0 to 29%

Same assay, conditions: post-emergence, 336 h, SORVU: grain sorghum (Sorghum vulgare), 140 g ai/ha, 14 days after application, read-out: Visual Growth Reduction (%) 14 Days After Application SORVU

**Q.** For `COc1nc(C(F)(F)F)ccc1-c1cc(N)c(Cl)c(C(=O)O)n1` [Compound 65], which pest or weed control at 140 g/ha is on record?
**A.** 0 to 29%

Same assay, conditions: post-emergence, 336 h, TRZSS (crop), 70 g ai/ha, 14 days after application, read-out: Visual Growth Reduction (%) 14 Days After Application TRZSS

**Q.** Which pest or weed control at 70 g/ha does the source give for `COc1nc(C(F)(F)F)ccc1-c1cc(N)c(Cl)c(C(=O)O)n1` [Compound 65] here?
**A.** 0 to 29%

Same assay, conditions: post-emergence, 336 h, TRZSS (crop), 140 g ai/ha, 14 days after application, read-out: Visual Growth Reduction (%) 14 Days After Application TRZSS

**Q.** Which pest or weed control at 140 g/ha does the source give for `COc1nc(C(F)(F)F)ccc1-c1cc(N)c(Cl)c(C(=O)O)n1` [Compound 65] here?
**A.** 0 to 29%

Same assay, conditions: post-emergence, 336 h, ZEAMX: maize, corn (Zea mays), 70 g ai/ha, 14 days after application, read-out: Visual Growth Reduction (%) 14 Days After Application ZEAMX

**Q.** Which pest or weed control at 70 g/ha does the source give for `COc1nc(C(F)(F)F)ccc1-c1cc(N)c(Cl)c(C(=O)O)n1` [Compound 65] here?
**A.** 0 to 29%

Same assay, conditions: post-emergence, 336 h, ZEAMX: maize, corn (Zea mays), 140 g ai/ha, 14 days after application, read-out: Visual Growth Reduction (%) 14 Days After Application ZEAMX

**Q.** For `COc1nc(C(F)(F)F)ccc1-c1cc(N)c(Cl)c(C(=O)O)n1` [Compound 65], which pest or weed control at 140 g/ha is on record?
**A.** 0 to 29%
